Data set [1] is described as follows: Extravascular (tissue) levels after intravenous administration in mice. It counts as in vivo. To be noted: 20 mg/kg i.v. Details: unit not given here. The procedure: For the pharmacokinetic studies and for the daily treatment, the mice were administered i.v. (via the jugular vein, where a permanent catheter had previously been fixed by surgical methods; i.v. administration was carried out slowly for 1 minute), and orally (via stomach tube), 20 mg/kg of t-PTER (dissolved in ethanol 0.5 ml/kg of animal weight) or QUER (dissolved in dimethylsulfoxide:saline, 1:0.5 0.15 ml/kg of weight). In general, the compositions based on a combination of PTER and QUER can contain, as excipients, those stated previously or any others that are pharmaceutically acceptable. The presentation of said compositions can be, non-limitatively, in the form of solids such as tablets, capsules, pellets, pills, etc. and liquid presentations such as drops, syrups, injectables, etc. Moreover, the active principles (PTER and QUER) of the composition can be in their uncombined forms or in the form of pharmaceutically acceptable salts, including esters. The t-PTER was synthesized in our laboratory following standardized reactions of Wittig and Heck (www.orgsyn.org), whereas the QUER was obtained from Sigma Chemical Co. (San Luis, Mo., USA). The ^3H-t-PTER (2.2 Ci/mmol), labeled in the ortho and para positions of the benzene rings, was prepared in our laboratory according to a method similar to that used for the deuteration of phenols (18). ^14C-QUER (50 mCi/mmol), labeled in position 4 of the carbon ring, was obtained from the NCI Radiochemical Carcinogen Repository of Chemsyn Laboratories (Kansas City, Mo., USA). The radioactivity was measured using a Varisette 2700 TR analyzer from Packard. Blood was collected by means of the catheter in 1-ml syringes that contained heparin sodium (0.05 ml of a 5% solution in […]). The plasma and the erythrocytes were separated as described previously (19).
To supplement the pharmacokinetics in plasma/blood, we also evaluated the bioavailability of PTER and QUER in extravascular tissues. […] Therefore, it appears that neither of the polyphenols is subject to extravascular accumulation and that their presence in various tissues (Table 2) is parallel in time to their bioavailability in the bloodstream (FIG. 1).
The animals were treated with t-PTER or QUER (20 mg/kg, containing 5 μCi of ^3H-t-PTER or 2 μCi ^14C-QUER). A group of 4-5 mice was sacrificed at each time point. Not detectable=n.d. *P<0.01 comparing the data obtained at 10-60 minutes with the data found 5 minutes after administration of the polyphenol.

The conditions of data set [2]: rabbits, i.v., cited from earlier work.
In data set [3] the test system is B16M-F10 cells / HSE. The settings on record: as described previously (ref. 14); cited from earlier work.
For the next data set, the system named is VCAM-1. To be noted: cited from earlier work.
Data set [4] deals with B16M-F10 cells / HSE. The settings on record: as described previously (ref. 14); cited from earlier work. This is another data set of the same source.

Marks after values point to notes of the source that are not given here.

With `COc1cc(/C=C/c2ccc(O)cc2)cc(OC)c1` [PTER, pterostilbene], in data set [1] (5 min), the “Extravascular level, Brain” value is on record as 5 ± 1; the “Extravascular level, Kidney” value stood at 3 ± 1; the “Extravascular level, Liver” value is recorded as 14 ± 4; the “Extravascular level, Lung” value is reported as 36 ± 6. Moreover, in data set [1] (10 min), the “Extravascular level, Brain” value is on record as 2 ± 0.5*; the “Extravascular level, Kidney” value came to 3 ± 0.3; the “Extravascular level, Liver” value is recorded as 7 ± 1*; the “Extravascular level, Lung” value is 15 ± 3*. In data set [1] (30 min), the “Extravascular level, Kidney” value is reported as 2 ± 0.4*; the “Extravascular level, Liver” value is recorded as 3 ± 0.5*; the “Extravascular level, Lung” value is 6 ± 1*. Further, in data set [1] (60 min), the “Extravascular level, Kidney” value is 1 ± 0.3* and the “Extravascular level, Lung” value is given as 2 ± 1*.

In the case of `O=c1c(O)c(-c2ccc(O)c(O)c2)oc2cc(O)cc(O)c12` [QUER, quercetin], in data set [1] (5 min), the “Extravascular level, Brain” value came out at 4 ± 1; the “Extravascular level, Kidney” value came to 1 ± 0.2; the “Extravascular level, Liver” value was determined as 9 ± 3; the “Extravascular level, Lung” value came out at 15 ± 3. Also, in data set [1] (10 min), the “Extravascular level, Brain” value is recorded as 2 ± 0.4*; the “Extravascular level, Kidney” value amounted to 1 ± 0.5; the “Extravascular level, Liver” value is 3 ± 1*^; the “Extravascular level, Lung” value is on record as 8 ± 2*. Moreover, in data set [1] (30 min), the “Extravascular level, Liver” value is given as 1 ± 0.2* and the “Extravascular level, Lung” value was 2 ± 0.6*. Moreover, the “highest concentration in plasma” value in data set [2] (5 minutes after administration) is around 43 µM. Moreover, the “time in which plasma concentration falls to ~1 μM” value in data set [2] is 60 min.

`Oc1ccc(C=Cc2cc(O)cc(O)c2)cc1` [RESV, resveratrol, reference compound]: the “effect on HSE-induced cytotoxicity on the metastatic cells” value in the data set on B16M-F10 cells / HSE [3] was “without increasing the HSE-induced cytotoxicity”. Further, in the data set with VCAM-1, the “concentration at which expression of VCAM-1 is inhibited” value was 1 µM. The “inhibition of adhesion of tumor cells to the endothelium” value in the data set with B16M-F10 cells / HSE [4] is given as around 47%.
